# Measurements reported in patent publication US20040156802A1, “Cosmetics or external preparations for skin” (priority 2001, published 2004).
# Where “and” joins values, the source holds several entries; their conditions need not be identical. Equal values may be shown once.
# How the values were obtained:
# [1] = test system: rabbits (New Zealand White species, male); assay: Test on the primary irritation of the skin; assay type: in vivo, rabbit; details: for Evaluation Value For irritation: alone, shaved rabbit back, blocked 24 hours; for effect on the primary irritation of the skin when used in combination with the irritant: in comparison with the irritant used singly, rabbit
# Procedure: Each back portion of rabbits (New Zealand White species, male) was shaved and each of the test compounds was applied thereto. Each of the test compound-applied portions was blocked for 24 hours, After 24, 48, 72 and 168 hours from the time of applying the test compound, the judgments were conducted for the erythema and edema appeared on the test compound-applied portion based on their standards indicated in table 1. The average evaluation value in each time at which the judgment was conducted was calculated (the value obtained by dividing the combined value of the evaluation value for erythema and that for edema by the number of animal used in the test). In addition, the average evaluation value in each time at which the judgment was conducted was all added up and the total value was divided by the number of judgment (4 times) to make the evaluation value of the primary initation.
# an adult = assay: Test in human on function of inhibiting erythema and irritation (tape-stripped forearm, protopic ointment); assay type: in vivo; details: skin where the barrier function was reduced by tape stripping (30 times)
# Procedure: A series of tests were conducted by an adult With respect to the function of inhibiting the skin erythema and irritation induced by an organic acid. A test solution of N, N′-diacetyl-L-cystine dimethyl ester dissolved in a 25% aqueous ethanol solution (the concentration of N, N′-diacetyl-L-cystine dimethyl ester; 10%) was prepared. A solution of only the solvents was separately prepared as control solution. 30 Times of tape stripping were conducted on the inward portion of the panelist's forearm. To the portion which the tape stripping procedures have been conducted was applied {circle over (2)} test solution (or control solution) in addition to {circle over (1)} control (any solvent is not applied). After 4 minutes, to each of the portions ({circle over (1)} control portion (both forearms) {circle over (2)} test solution-applied portion and {circle over (3)} control solution-applied portion) was applied protopic ointment (tacrolimus: 1 mg/g), and the erytherma and irritation appeared on each of the portions after an additional 5 minutes were evaluated. […] In the skin where the barrier function of the skin was reduced by tape stripping (30 times), erytherma and irritation caused by the protopic ointment were suppressed by N, N′-diacetyl-L-cystine dimethyl ester.
# adult men [2] = assay: Test in human on function of inhibiting the irritation induced by an organic acid (test solution applied 3 minutes before glycolic acid); assay type: in vivo; details: glycolic acid concentration: 10%
# Procedure: A series of tests were conducted by four adult men with respect to the function of inhibiting the irritation of the skin induced an organic acid. There were prepared a solution of glycolic acid dissolved in a 25% aqueous ethanol solution (the concentration of glycolic acid: 10%) and a test solution of N, N′-diacetyl-L-cystine dimethyl ester dissolved in the same solvents (the concentration of N, N′-diacetyl-L-cystine dimethyl ester: 10%). A solution of only the solvent was separately prepared as the control solution. After all of the panelists washed their faces, either test solution or control solution was applied to each right cheek of the their faces with a cotton bud. After additional 3 minutes, the glycolic acid solution was applied to the same portion as in the above and the irritation which each of the panelists felt was recorded as the score every a minute after a minute from the time of applying the glycolic acid solution for 10 minutes based on its evaluation standards shown below. […] After additional 3 minutes, the glycolic acid solution was applied to the same portion and the irritation which each of the panelists felt at the applied portion was similarly recorded as the score every a minute after a minute from the time of applying the glycolic acid solution for 10 minutes. […]
# adult men [3] = assay: Test in human on function of inhibiting the irritation induced by an organic acid (solution B applied 4 minutes before glycolic acid solution A); assay type: in vivo; details: glycolic acid concentration: 20%
# Procedure: A series of tests were conducted by three adult men with respect to the function of inhibiting the irritation of the skin induced an organic acid. […] After all of the panelists washed their faces, solution B (or solution C) was applied to each right cheek (or each left cheek) of the their faces with a cotton bud. […] The irritation which each of the panelists felt at the solution-applied portion was recorded as the score every a minute after a minute from the time of applying the solution for 5 minutes based on its evaluation standards shown below. In addition, the function of the test compound (N, N′-diacetyl-L-cystine dimethyl ester) for inhibiting the irritation was judged based on the judging standards shown below.
# [4] = concentration 3%, erythema + edema averaged over 24, 48, 72 and 168 hours
molecule,measurement,setting,value
CC(O)C(=O)O (stereo not drawn) [Lactic acid],Evaluation Value For irritation,"[1]; concentration 70%, erythema + edema averaged over 24, 48, 72 and 168 hours",1.4
"COC(=O)[C@H](CSSC[C@H](NC(C)=O)C(=O)OC)NC(C)=O [N,N′-diacetyl-L-cystine dimethyl ester]",erythema and irritation caused by the protopic ointment,an adult,suppressed
same,inhibitory function in human toward irritation caused by glycolic acid,adult men [2],exhibited inhibitory function
same,effect on the primary irritation of the skin when used in combination with the irritant,[1],mitigates the primary irritation of the skin
same,inhibitory function in human toward irritation caused by glycolic acid,adult men [3],exhibited inhibitory function
"CCCCCCCC(=O)N[C@@H](CSSC[C@H](NC(=O)CCCCCCC)C(=O)OC)C(=O)OC [N,N′-dioctanoyl-L-cystine dimethyl ester]",effect on the primary irritation of the skin when used in combination with the irritant,[1],mitigates the primary irritation of the skin
CCCCCCCCCCCCOS(=O)(=O)[O-].[Na+] [Sodium lauryl sulfate],Evaluation Value For irritation,"[1]; concentration 5%, erythema + edema (each 0-4) averaged over judgments at 24, 48, 72 and 168 hours, sulfate",6.6 and 6.4
CCCCCCCCCCCCCCCCCC[N+](C)(C)C.[Cl-] [Stearyl trimethyl ammonium chloride],Evaluation Value For irritation,[1]; [4],3.7
Benzalkonium chloride,Evaluation Value For irritation,[1]; [4],5.3
